Assay results published in patent US20120132797A1, “MEANS AND METHODS FOR DIAGNOSING THYROID DISORDERS” (BASF SE, priority 2009, published 2012).

System: Wistar (Crl:WI(Han)) rats
Test: Mass spectrometry-based plasma metabolite profiling of rats treated with known inducers of thyroid function impairment
Type: in vivo, rat
Conditions: female rats, ratio of group medians vs controls; for 5-O-Methylsphingosine / Asparagine / Behenic acid (C22:0) / Citrate / Docosahexaenoic acid (C22:cis[4,7,10,13,16]6) / Glycine / Ketoleucine / Lysophosphatidylcholine (C18:2) / Phosphatidylcholine (C16:1, C18:2) / Phosphatidylcholine (C18:2, C20:4) / Pyruvate / Tricosanoic acid (C23:0) / erythro-Sphingosine / threo-Sphingosine: Table 1
In short: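 Rats aged 10-11 weeks, 5/sex/dose vs 10/sex controls, dosed at low and high levels; retro-orbital plasma taken under isoflurane on days 7, 14 and 28 after 16-20 h fast. Polar and non-polar fractions profiled by GC-MS (derivatised) and LC-MS/MS (MRM plus full scan), normalised to pool samples; Welch t-test by sex and day gives p-values and median ratios.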

N#Cc1ccc(CC(=NNC(=O)Nc2ccc(OC(F)(F)F)cc2)c2cccc(C(F)(F)F)c2)cc1 (mixture of isomers) [Metaflumizone]
5-O-Methylsphingosine (fh7 (study day 7)): 0.99 | Asparagine (fh7 (study day 7)): 0.75 | Behenic acid (C22:0) (fh7 (study day 7)): 1.12 | Citrate (fh7 (study day 7)): 0.84 | Docosahexaenoic acid (C22:cis[4,7,10,13,16]6) (fh7 (study day 7)): 1.52 | Glycine (fh7 (study day 7)): 0.93 | Ketoleucine (fh7 (study day 7)): 0.97 | Lysophosphatidylcholine (C18:2) (fh7 (study day 7)): 0.88 | Phosphatidylcholine (C16:1, C18:2) (fh7 (study day 7)): 1.14 | Phosphatidylcholine (C18:2, C20:4) (fh7 (study day 7)): 1.14 | Pyruvate (fh7 (study day 7)): 0.64 | Tricosanoic acid (C23:0) (fh7 (study day 7)): 1.28 | erythro-Sphingosine (fh7 (study day 7)): 1.25 | threo-Sphingosine (fh7 (study day 7)): 1.29 | Sphingomyelin (d18:1, C16:0) (fh7 (study day 7), Table 1, first listing): 1.29 | Sphingomyelin (d18:1, C16:0) (fh7 (study day 7), Table 1, second listing): 0.97 | 5-O-Methylsphingosine (fh14 (study day 14)): 1.42 | Asparagine (fh14 (study day 14)): 0.57 | Behenic acid (C22:0) (fh14 (study day 14)): 1.28 | Citrate (fh14 (study day 14)): 0.62 | Docosahexaenoic acid (C22:cis[4,7,10,13,16]6) (fh14 (study day 14)): 2.54 | Glycine (fh14 (study day 14)): 0.97 | Ketoleucine (fh14 (study day 14)): 0.81 | Lysophosphatidylcholine (C18:2) (fh14 (study day 14)): 1.20 | Phosphatidylcholine (C16:1, C18:2) (fh14 (study day 14)): 1.40 | Phosphatidylcholine (C18:2, C20:4) (fh14 (study day 14)): 1.16 | Pyruvate (fh14 (study day 14)): 0.54 | Tricosanoic acid (C23:0) (fh14 (study day 14)): 1.41 | erythro-Sphingosine (fh14 (study day 14)): 1.50 | threo-Sphingosine (fh14 (study day 14)): 1.27 | Sphingomyelin (d18:1, C16:0) (fh14 (study day 14), Table 1, first listing): 1.45 | Sphingomyelin (d18:1, C16:0) (fh14 (study day 14), Table 1, second listing): 1.10 | 5-O-Methylsphingosine (fh28 (study day 28)): 2.07 | Asparagine (fh28 (study day 28)): 1.17 | Behenic acid (C22:0) (fh28 (study day 28)): 2.03 | Citrate (fh28 (study day 28)): 0.88 | Docosahexaenoic acid (C22:cis[4,7,10,13,16]6) (fh28 (study day 28)): 1.98 | Glycine (fh28 (study day 28)): 1.63 | Ketoleucine (fh28 (study day 28)): 0.81 | Lysophosphatidylcholine (C18:2) (fh28 (study day 28)): 1.11 | Phosphatidylcholine (C16:1, C18:2) (fh28 (study day 28)): 1.86 | Phosphatidylcholine (C18:2, C20:4) (fh28 (study day 28)): 1.20 | Pyruvate (fh28 (study day 28)): 0.72 | Tricosanoic acid (C23:0) (fh28 (study day 28)): 2.56 | erythro-Sphingosine (fh28 (study day 28)): 1.82 | threo-Sphingosine (fh28 (study day 28)): 1.89 | Sphingomyelin (d18:1, C16:0) (fh28 (study day 28), Table 1, first listing): 1.38 | Sphingomyelin (d18:1, C16:0) (fh28 (study day 28), Table 1, second listing): 1.15
